Assay [1] relates to PAT/Cry1F-transformed Arabidopsis (auxin-sensitive control). As to the kind of experiment: Herbicide response of PAT/Cry1F transformed control Arabidopsis. It is filed as in vivo, Arabidopsis thaliana. Conditions: for % Injury 20-40% (individuals) / % Injury <20% (individuals) / % Injury >40% (individuals) / % Injury Ave: 14 DAT. From the text: T1 plants were then randomly assigned to various rates of 2,4-D. For Arabidopsis, 50 g ae/ha 2,4-D is an effective dose to distinguish sensitive plants from ones with meaningful levels of resistance. Elevated rates were also applied to determine relative levels of resistance (280, 560, 1120, or 2240 g ae/ha). Tables 11 and 12 show comparisons drawn to an aryloxyalkanoate herbicide resistance gene (AAD-12 (v1)) previously described in PCT/US2006/042133.
All auxin herbicide applications were made using the DeVilbiss sprayer as described above to apply 703 L/ha spray volume (0.4 ml solution/3-inch pot) or applied by track sprayer in a 187 L/ha spray volume. 2,4-D used was either technical grade (Sigma, St. Louis, Mo.) dissolved in DMSO and diluted in water (<1% DMSO final concentration) or the commercial dimethylamine salt formulation (456 g ae/L, NuFarm, St Joseph, Mo.). Dichlorprop used was commercial grade formulated as potassium salt of R-dichlorprop (600 g ai/L, AH Marks). As herbicide rates increased beyond 800 g ae/ha, the pH of the spray solution became exceedingly acidic, burning the leaves of young, tender Arabidopsis plants and complicating evaluation of the primary effects of the herbicides.
The first Arabidopsis transformations were conducted using AAD-13 (v1) (plant optimized gene). T1 transformants were first selected from the background of untransformed seed using a glufosinate selection scheme. Over 160,000 T1 seed were screened and 238 glufosinate resistant plants were identified (PAT gene), equating to a transformation/selection frequency of 0.15% which lies in the normal range of selection frequency of constructs where PAT+Liberty are used for selection. T1 plants selected above were subsequently transplanted to individual pots and sprayed with various rates of commercial aryloxyalkanoate herbicides. Table 11 compares the response of AAD-13 (v1) and control genes to impart 2,4-D resistance to Arabidopsis T1 transformants. Response is presented in terms of % visual injury 2 WAT. […] An arithmetic mean and standard deviation is presented for each treatment. The range in individual response is also indicated in the last column for each rate and transformation. PAT/Cry1F-transformed Arabidopsis served as an auxin-sensitive transformed control. The AAD-13 (v1) gene imparted herbicide resistance to individual T1 Arabidopsis plants. Within a given treatment, the level of plant response varied greatly and can be attributed to the fact each plant represents an independent transformation event. Of important note, at each 2,4-D rate tested, there were individuals that were unaffected while some were severely affected. […] At high rates the spray solution becomes highly acidic unless buffered therefore some of the injury may be attributed to the acidity of the spray solution. Arabidopsis grown mostly in the growth chamber has a very thin cuticle and severe burning effects can complicate testing at these elevated rates. Nonetheless, many individuals have survived 2,240 g ae/ha 2,4-D with little or no injury.
The ability of AAD-13 (v1) to provide resistance to other aryloxyalkanoate auxin herbicides in transgenic Arabidopsis was determined by foliar application of various substrates. T2 generation Arabidopsis seed was stratified, and sown into selection trays much like that of Arabidopsis (Example 6.4). A transformed-control line containing PAT and the insect resistance gene Cry1F was planted in a similar manner. Seedlings were transferred to individual 3-inch pots in the greenhouse. All plants were sprayed with the use of a track sprayer set at 187 L/ha. The plants were sprayed with a range of pyridyloxyacetate herbicides: 200-800 g ae/ha triclopyr (Garlon 3A, Dow AgroSciences) and 200-800 g ae/ha fluoroxypyr (Starane, Dow AgroSciences). […]

For the next assay, the target named is T1, AAD-13 (v2) (Sphingobium herbicidovorans, UniProt Q700X4).
T1 construct: His tag (C); made in house; host or cells: E. coli BL-21, pET-26b(+)
It is filed as biochemical. Conditions: substrate 1 mM; rate as percentage of 2,4-D rate in same sample set; propionate rates divided by two. From the text:
In order to test a broad range of substrates, the production of succinate from the breakdown of α-ketoglutarate was detected spectrophotometricly using a protocol based on the method of Luo et. al. (2006) (Anal. Biochem. 353: 69-74). As depicted in FIG. 3, the concomitant breakdown of α-ketoglutarate and the substrate of interest via AAD-13, results in the production of succinate. Succinate is further modified to succinyl-CoA by succinyl-CoA synthetase which consumes ATP and produces ADP. ADP is then consumed by the commonly employed pyruvate kinase/lactate dehydrogenase enzymatic coupling system (Sigma P0294). The resulting conversion of NADH to NAD is monitored spectrophotometrically at 340 nm.
Identification of AAD-13 (v2) substrates in vitro was based on enzymatic activity detected during continuous spectrophotometric monitoring of a 0.2 mL reaction volume in a 96 well microtiter plate. Reaction conditions were as follows: 100 mM MOPS pH 7.0, 0.4 mM NADH, 0.4 mM ATP, 0.4 mM CoA, 1 mM PEP, 10 mM MgCl2, 0.1 mM […] (solubilized in HCl), and 0.1 mM ascorbate, 1 mM α-ketoglutarate and sufficient AAD-13 (v2) to produce an observable rate in the presence of 2,4-D. Coupling enzymes (SCS/PK/LDH) were adjusted by batch to ensure adequate coupling, and potential substrates were generally assayed at 1 mM. Alterations in substrate concentrations were made as needed to adjust for solubility. Reactions were initiated by either the addition of AAD-13 (v2) or potential substrate. The rate of substrate independent conversion of α-ketoglutarate to succinate by AAD was monitored under the above assay conditions and subtracted from the observed reaction rates. […] Additionally, propionate compounds were checked for pyruvate contamination by spectrophotometrically monitoring the consumption of NADH in the presence of compound and PK/LDH.
Reaction rates are reported as a percentage of the 2,4-D reaction rate obtained in the same sample set. […] It should be noted that faster rates can be more difficult to accurately compare depending on the percentage of available substrate consumed. […] As a result, highly efficient substrates will be properly grouped when compared to low efficiency substrates. Within the grouping of highly efficient substrates however, compounds may not be quantitatively separated by a screen using single rates of substrate and AAD.

T1 sequence (Q700X4 other isoform, or with tags, fused parts or gaps): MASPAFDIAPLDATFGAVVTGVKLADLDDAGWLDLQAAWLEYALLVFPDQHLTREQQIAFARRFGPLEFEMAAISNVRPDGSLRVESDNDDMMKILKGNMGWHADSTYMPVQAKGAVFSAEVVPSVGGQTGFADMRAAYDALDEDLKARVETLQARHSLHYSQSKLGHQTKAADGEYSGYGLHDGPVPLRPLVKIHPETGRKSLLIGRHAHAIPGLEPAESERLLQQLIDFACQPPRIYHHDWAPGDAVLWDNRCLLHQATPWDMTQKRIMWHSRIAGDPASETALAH

As for `CNC.O=C(O)COc1ccc(Cl)cc1Cl` [2,4-D DMA], in assay [1] (280 g ae/ha postemergence), the “% Injury 20-40% (individuals)” value is reported as 0, the “% Injury <20% (individuals)” value came to 0, the “% Injury >40% (individuals)” value amounted to 20 and the “% Injury Ave” value came out at 100%. In assay [1] (560 g ae/ha postemergence), the “% Injury 20-40% (individuals)” value is given as 0, the “% Injury <20% (individuals)” value is 0, the “% Injury >40% (individuals)” value is recorded as 20 and the “% Injury Ave” value is reported as 100%. Moreover, in assay [1] (1120 g ae/ha postemergence), the “% Injury 20-40% (individuals)” value is 0, the “% Injury <20% (individuals)” value is 0, the “% Injury >40% (individuals)” value is 20 and the “% Injury Ave” value worked out at 100%. Also, in assay [1] (2240 g ae/ha postemergence), the “% Injury 20-40% (individuals)” value is 0, the “% Injury <20% (individuals)” value is 0, the “% Injury >40% (individuals)” value was found to be 20 and the “% Injury Ave” value stood at 100%.

For `C[C@@H](Oc1ccc(Cl)cc1Cl)C(=O)O` [R-dichloroprop, R-dichlorprop], the “% of 24D activity” value at AAD-13 (v2) is listed as 19%.

Regarding `Nc1c(Cl)c(F)nc(OCC(=O)O)c1Cl` [fluoroxypyr], the “Ave. % Injury 14DAT” value in assay [1] (200 g ae/ha foliar-applied), in assay [1] (400 g ae/ha foliar-applied) and in assay [1] (800 g ae/ha foliar-applied) was 100% each time. Further, the “% of 24D activity” value on AAD-13 (v2) was found to be 67%.

With `O=C(O)COc1nc(Cl)c(Cl)cc1Cl` [triclopyr], the “Ave. % Injury 14DAT” value in assay [1] (200 g ae/ha foliar-applied), in assay [1] (400 g ae/ha foliar-applied) and in assay [1] (800 g ae/ha foliar-applied) was 100% in each case. Also, the “% of 24D activity” value on AAD-13 (v2) worked out at 6%.
